{"source": "patent US20240226104A1", "about": "“PI3K INHIBITORS, NANOFORMULATIONS, AND USES THEREOF” (THE REGENTS OF THE UNIVERSITY OF MICHIGAN, priority 2021, published 2024)"}
{"system": "3D multicellular tumor spheroids (4T1 cells and M2 macrophages derived from RAW264.7 cells)", "assay": "3D multicellular tumor spheroids (MCTs) growth", "format": "cell-based", "conditions": "single drug 5 μM; combination 2.5 μM plus 2.5 μM; 14 days", "method": "3D multicellular tumor spheroids (MICs), 4T1 cells and M2 macrophages derived from RAW264.7 cells were mixed in the ratio of 7:3 and then seeded into an ultralow-attachment 96 well plate (Corning) at a density of 5,000 cells/well and cultured for 30 h to form the tumor spheroids. These tumor spheroids were separately incubated with 300 μL complete medium supplemented with PTX ([…]), gemcitabine (5 μM), doxorubicin (5 μM), and IPI-549 (5 μM) as well as the combination of IPI-549 and PTX (2.5 μM+[…]), IPI-549 and gemcitabine (2.5 μM+2.5 μM), and IPI-549 and doxorubicin (2.5 μM+2.5 μM) for 14 days. The volumes ([major axis]×[minor axis]^2/2) of the MTCs were monitored every other day using an Olympus IX83 motorized inverted microscope with cellSens Dimension software (Olympus), and images were captured using a CellInsight CX5 High-Content Screening (HCS) Platform (Thermo Fisher) at 4× magnification."}
{"smiles": "Nc1ccn([C@@H]2O[C@H](CO)[C@@H](O)C2(F)F)c(=O)n1", "note": "[gemcitabine]", "inhibition of 3D MCTs growth": "limited inhibition of 3D MCTs growth"}
{"smiles": "COc1cccc2c1C(=O)c1c(O)c3c(c(O)c1C2=O)C[C@@](O)(C(=O)CO)C[C@@H]3O[C@H]1C[C@H](N)[C@H](O)[C@H](C)O1", "note": "[doxorubicin]", "inhibition of 3D MCTs growth": "limited inhibition of 3D MCTs growth"}
{"smiles": "CC(=O)O[C@H]1C(=O)[C@@]2(C)[C@H]([C@H](OC(=O)c3ccccc3)[C@]3(O)C[C@H](OC(=O)[C@H](O)[C@@H](NC(=O)c4ccccc4)c4ccccc4)C(C)=C1C3(C)C)[C@]1(OC(C)=O)CO[C@@H]1C[C@@H]2O", "note": "[PTX, paclitaxel]", "inhibition of 3D MCTs growth": "limited inhibition of 3D MCTs growth"}
{"smiles": "C[C@H](NC(=O)c1c(N)nn2cccnc12)c1cc2cccc(C#Cc3cnn(C)c3)c2c(=O)n1-c1ccccc1", "note": "[IPI-549]", "inhibition of 3D MCTs growth": "limited inhibition of 3D MCTs growth"}
